The values that follow come from ChEMBL document CHEMBL4138277, “Lipovelutibols A-D: Cytotoxic Lipopeptaibols from the Himalayan Cold Habitat Fungus Trichoderma velutinum” (J Nat Prod, 2018).

SMILES strings stand for the structures. Non-standard residues stand in square brackets, D forms with d. Residues, ends and D or L forms follow the SMILES beside them. *: point of attachment. Leu(ol) = CC(C)C[C@H](N)CO; dIva = CC[C@@](C)(N)C(=O)O; Octanoyl = CCCCCCCC(=O)*; Aib = CC(C)(N)C(=O)O Some results are limits rather than exact numbers.

Holding throughout (assay type): functional, cell-based
The test system of one assay is HL-60. The assay is described as follows: Cytotoxicity against human HL60 cells after 48 hrs by MTT assay. Particulars: HL-60, 48 h. A general note: Tetrazolium dyes change colour on reduction, which living cells bring about.
The test system of a further assay is MDA-MB-231. The assay is described as follows: Cytotoxicity against human MDA-MB-231 cells after 48 hrs by MTT assay. Conditions: MDA-MB-231, 48 h.
For the next assay, the system named is A549. The assay is described as follows: Cytotoxicity against human A549 cells after 48 hrs by MTT assay. Particulars: A549, 48 h.
The next assay concerns LS180. The assay is described as follows: Cytotoxicity against human LS180 cells after 48 hrs by MTT assay. Conditions: LS180, 48 h.

Consider `CCCCCCCC(=O)NCC(=O)N[C@@H](C)C(=O)N[C@@H](CC(C)C)C(=O)N[C@](C)(CC)C(=O)N[C@@H](C)C(=O)N[C@H](C(=O)N[C@H](CO)CC(C)C)[C@@H](C)CC` (Octanoyl-GAL[dIva]AI[Leu(ol)]), for which the IC50 (commonly the point on the concentration scale where inhibition reaches its midpoint) is 4 µM in the assay with HL-60, 5 µM in the assay with MDA-MB-231, 4 µM with A549 and 7 µM with LS180.
In the case of `CCCCCCCC(=O)NCC(=O)N[C@@H](C)C(=O)N[C@@H](CC(C)C)C(=O)NC(C)(C)C(=O)N[C@@H](CO)C(=O)N[C@H](C(=O)N[C@H](CO)CC(C)C)[C@@H](C)CC` (Octanoyl-GAL[Aib]SI[Leu(ol)]), the IC50 was greater than 30 µM in the assay with HL-60, greater than 30 µM in the assay on MDA-MB-231, 30 µM in the assay with A549 and greater than 30 µM in the assay with LS180.
Regarding `CCCCCCCC(=O)NCC(=O)N[C@@H](C)C(=O)N[C@@H](CC(C)C)C(=O)NC(C)(C)C(=O)N[C@@H](C)C(=O)N[C@H](C(=O)N[C@H](CO)CC(C)C)[C@@H](C)CC` (Octanoyl-GAL[Aib]AI[Leu(ol)]), the IC50 in the assay with HL-60 is 16 µM; in the assay with MDA-MB-231 it was 16 µM; in the assay on A549 it was 17 µM; in the assay with LS180 it was greater than 30 µM.
For `CCCCCCCC(=O)NCC(=O)N[C@@H](C)C(=O)N[C@@H](CC(C)C)C(=O)N[C@](C)(CC)C(=O)N[C@@H](CO)C(=O)N[C@H](C(=O)N[C@H](CO)CC(C)C)[C@@H](C)CC`, the IC50 in the assay on HL-60 was 2 µM; with MDA-MB-231, 4 µM; in the assay with A549, 30 µM; in the assay on LS180, greater than 30 µM.
As to `CC(=O)O[C@H]1C(=O)[C@@]2(C)[C@H]([C@H](OC(=O)c3ccccc3)[C@]3(O)C[C@H](OC(=O)[C@H](O)[C@@H](NC(=O)c4ccccc4)c4ccccc4)C(C)=C1C3(C)C)[C@]1(OC(C)=O)CO[C@@H]1C[C@@H]2O` [PACLITAXEL], the IC50 in the assay on LS180 is 0.0028 µM. In other words, the single-digit nanomolar range.
